Assay results reported in patent US11866430B2, “Naphthyridinone compounds useful as T cell activators” (priority 2018, dated 2024).
Like-named read-outs stand apart in the source and are kept apart here.

What was measured:
[1] = target: human DGKζ (Homo sapiens (Human), UniProt Q13574); test: DGKζ assay (detergent/lipid micelle substrate); type: biochemical
Protocol: (§1) The DGKα and DGKζ reactions were performed using either extruded liposome (DGKα and DGKζ LIPGLO assays) or detergent/lipid micelle substrate (DGKα and DGKζ assays). The reactions were carried out in 50 mM MOPS pH 7.5, 100 mM NaCl, 10 mM MgCl2, 1 μM CaCl2, and 1 mM DTT (assay buffer). The reactions using a detergent/lipid micelle substrate also contained 50 mM octyl B-D-glucopyranoside. […] The lipid substrate concentrations were […], 0.25 mM DAG, and 2.75 mM PC for the extruded liposome reactions.
(§2) The compound inhibition studies were carried out as follows: 50 nL droplets of each test compound (top concentration 10 mM with 11 point, 3-fold dilution series for each compound) solubilized in DMSO were transferred to wells of a white 1536 well plate (Corning 3725). A 5 mL enzyme/substrate solution at 2× final reaction concentration was prepared by combining 2.5 mL 4× enzyme solution (20 nM DGKα or DGKζ (prepared as described below) in assay buffer) and 2.5 mL of either 4× liposome or 4× detergent/lipid micelle solution (compositions described below) and incubated at room temperature for 10 minutes. Next, 1 μL 2× enzyme/substrate solution was added to wells containing the test compound and reactions were initiated with the addition of 1 μL 300 uM ATP. The reactions were allowed to proceed for 1 hr, after which 2 μL Glo Reagent (Promega V9101) was added and incubated for 40 minutes. Next, 4 μL Kinase Detection Reagent was added and incubated for 30 minutes. Luminescence was recorded using an EnVision microplate reader. […] The compounds were evaluated at 11 concentrations to determine IC50.
(§3) The detergent/lipid micelle was prepared by combining 15 g phosphatidylserine (Avanti 840035P) and 1 g diacylglycerol (800811O) and dissolving into 150 mL chloroform in a 2 L round bottom flask. Chloroform was removed under high vacuum by rotary evaporation. The resulting colorless, tacky oil was resuspended in 400 mL 50 mM MOPS pH 7.5, 100 mM NaCl, 20 mM NaF, 10 mM MgCl2, 1 μM CaCl2), 1 mM DTT, and 200 mM octyl glucoside by vigorous mixing. The lipid/detergent solution was split into 5 mL aliquots and stored at −80° C.
(§4) Human DGK-alpha-TVMV-His-pFBgate and human DCK-zeta-transcript variant-2-TVMV-His-pFBgate baculovirus samples were generated using the Bac-to-Bac baculovirus expression system (Invitrogen) according to the manufacturer's protocol. The DNA used for expression of DGK-alpha and DGK-zeta have SEQ ID NOs: 1 and 3, respectively. Baculovirus amplification was achieved using infected Sf9 cells at 1:1500 virus/cell ratios, and grown for 65 hours at 27° C. post-transfection.
(§5) The expression scale up for each protein was carried out in the Cellbag 50 L WAVE-Bioreactor System 20/50 from GE Healthcare Bioscience. 12 L of 2×10^6 cells/mL Sf9 cells (Expression System, Davis, Calif.) grown in ESF921 insect medium (Expression System) were infected with virus stock at 1:200 virus/cell ratios, and grown for 66-68 hours at 27° C. post-infection. The infected cell culture was harvested by centrifugation at 2000 rpm for 20 min 4° C. in a SORVALL® RC12BP centrifuge. The cell pellets were stored at −70° C. until purification.
(§6) Full length human DGKα and DGKζ, each expressed containing a TVMV-cleavable C-terminal Hexa-His tag sequence (SEQ ID NOs: 2 and 4, respectively) and produced as described above, were purified from Sf) baculovirus-infected insect cell paste. The cells were lysed using nitrogen cavitation method with a nitrogen bomb (Parr Instruments), and the lysates were clarified by centrifugation. […] The three steps column chromatography included nickel affinity resin capture (i.e. HisTrap FF crude, GE Healthcare), followed by size exclusion chromatography (i.e. HiLoad 26/600 Superdex 200 prep grade, GE Healthcare for DGK-alpha, and HiPrep 26/600 Sephacryl S 300_HR, GE Healthcare for DGK-zeta).

[2] = target: human DGKα (Homo sapiens (Human), UniProt P23743); test: biochemical; conditions: detergent/lipid micelle substrate; read-out: DGKα IC50
human DGKα, sequence (P23743 other isoform, or with tags, fused parts or gaps): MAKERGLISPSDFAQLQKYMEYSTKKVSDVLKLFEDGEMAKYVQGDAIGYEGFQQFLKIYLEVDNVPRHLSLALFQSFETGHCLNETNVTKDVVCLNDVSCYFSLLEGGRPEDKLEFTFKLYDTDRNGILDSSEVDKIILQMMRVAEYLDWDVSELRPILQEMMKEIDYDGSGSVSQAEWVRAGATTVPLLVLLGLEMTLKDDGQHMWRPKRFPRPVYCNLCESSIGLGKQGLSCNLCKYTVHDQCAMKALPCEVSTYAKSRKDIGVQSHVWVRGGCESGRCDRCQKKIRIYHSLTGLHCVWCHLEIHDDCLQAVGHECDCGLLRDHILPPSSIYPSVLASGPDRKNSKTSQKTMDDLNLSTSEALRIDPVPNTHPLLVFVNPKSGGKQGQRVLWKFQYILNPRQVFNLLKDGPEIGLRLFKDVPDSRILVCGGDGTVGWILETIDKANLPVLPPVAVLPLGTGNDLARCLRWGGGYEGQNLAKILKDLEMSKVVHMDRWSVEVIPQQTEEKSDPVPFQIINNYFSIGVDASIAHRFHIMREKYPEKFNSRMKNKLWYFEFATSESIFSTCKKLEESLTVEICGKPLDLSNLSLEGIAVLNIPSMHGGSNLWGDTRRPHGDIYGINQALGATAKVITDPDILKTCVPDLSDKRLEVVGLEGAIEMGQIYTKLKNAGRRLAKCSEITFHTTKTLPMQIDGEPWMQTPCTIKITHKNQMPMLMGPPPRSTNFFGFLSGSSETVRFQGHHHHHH
Protocol: as §1, §2, §3, §4, §5, §6

[3] = tested on: pre-activated CD4 T cells and Raji cells; test: Raji CD4 T Cell IL2 Assay; type: cell-based
[4] = detergent/lipid micelle substrate, read-out: DGKζ IC50

human DGKζ, sequence (Q13574 other isoform, or with tags, fused parts or gaps): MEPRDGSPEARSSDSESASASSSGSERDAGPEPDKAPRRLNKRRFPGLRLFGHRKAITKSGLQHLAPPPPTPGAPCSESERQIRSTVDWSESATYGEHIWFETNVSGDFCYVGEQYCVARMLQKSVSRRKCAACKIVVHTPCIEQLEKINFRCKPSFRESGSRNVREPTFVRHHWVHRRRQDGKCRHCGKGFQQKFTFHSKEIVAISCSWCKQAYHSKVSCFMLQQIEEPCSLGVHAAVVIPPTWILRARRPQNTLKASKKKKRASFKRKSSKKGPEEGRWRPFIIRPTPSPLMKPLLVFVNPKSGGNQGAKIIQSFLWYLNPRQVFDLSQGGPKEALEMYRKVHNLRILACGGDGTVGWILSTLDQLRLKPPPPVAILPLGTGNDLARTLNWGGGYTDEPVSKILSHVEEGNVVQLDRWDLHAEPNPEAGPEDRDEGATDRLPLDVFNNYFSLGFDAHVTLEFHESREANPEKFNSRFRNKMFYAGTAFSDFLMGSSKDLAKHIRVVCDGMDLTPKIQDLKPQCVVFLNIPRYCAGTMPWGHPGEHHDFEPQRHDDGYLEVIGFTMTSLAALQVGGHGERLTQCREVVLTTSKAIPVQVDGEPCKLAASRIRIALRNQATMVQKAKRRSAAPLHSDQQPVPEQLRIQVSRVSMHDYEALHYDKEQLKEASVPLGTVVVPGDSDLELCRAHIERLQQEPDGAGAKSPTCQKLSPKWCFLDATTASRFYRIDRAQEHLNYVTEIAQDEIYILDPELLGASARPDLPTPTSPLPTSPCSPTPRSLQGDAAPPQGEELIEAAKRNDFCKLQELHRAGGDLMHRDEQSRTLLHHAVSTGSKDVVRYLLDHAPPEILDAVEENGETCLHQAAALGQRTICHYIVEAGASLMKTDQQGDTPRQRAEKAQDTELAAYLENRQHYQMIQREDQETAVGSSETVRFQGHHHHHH

| Compound | IC50 [1, 4] [µM] | IC50 [2] [µM] | IC50 ([3]; Homo sapiens, Raji) [µM] | IC50 [3] [µM] | IC50 ([1]; DGKζ IC50, detergent/lipid micelle substrate) [µM] |
| --- | --- | --- | --- | --- | --- |
| Cn1c(=O)c(C#N)c(N2CCN(Cc3cc(Cl)ccc3O)CC2)c2nc(Cl)ccc21 [Example 370, 6-chloro-4-{4-[(5-chloro-2-hydroxyphenyl)methyl]piperazin-1-yl}-1-methyl-2-oxo-1,2-dihydro-1,5-naphthyridine-3-carbonitrile] | > 240 | 0.17 | > 100 |  |  |
| O=c1c([N+](=O)[O-])c(N2CCN(C(c3ccccc3)c3ccccc3)CC2)c2ncccc2n1CCC=C(F)F [Example 186, 4-(4-benzhydrylpiperazin-1-yl)-1-(4,4-difluorobut-3-en-1-yl)-3-nitro-1,5-naphthyridin-2(1H)-one] | > 240 | > 240 | 3 |  |  |
| Cn1c(=O)c(C#N)c(N2CCN(C3(c4ccc(F)cc4)CC3)CC2)c2nc(Cl)ccc21 [Example 421, 6-chloro-4-{4-[1-(4-fluorophenyl)cyclopropyl]piperazin-1-yl}-1-methyl-2-oxo-1,2-dihydro-1,5-naphthyridine-3-carbonitrile] | > 240 | 69 | 2.8 |  |  |
| COc1cccc(CN2CCN(c3c(C#N)c(=O)n(C)c4ccc(Cl)nc34)CC2)c1O [Example 371, 6-chloro-4-{4-[(2-hydroxy-3-methoxyphenyl)methyl]piperazin-1-yl}-1-methyl-2-oxo-1,2-dihydro-1,5-naphthyridine-3-carbonitrile] | 170 | 0.23 | > 100 |  |  |
| C=CCOc1cccc(C)c1C(c1ccc(F)cc1)N1CCN(c2c([N+](=O)[O-])c(=O)n(C)c3ccc(Br)nc23)CC1 (single isomer, unassigned) [Example 95, 4-(4-((2-(allyloxy)-6-methylphenyl)(4-fluorophenyl)methyl)piperazin-1-yl)-6-bromo-1-methyl-3-nitro-1,5-naphthyridin-2(1-H)-one] | > 240 | > 240 |  | 1.1 |  |
| Cc1ccc2c(n1)c(N1CCN(C(c3ccc(F)cc3)c3ccc(F)cc3)CC1)c(C(F)(F)F)c(=O)n2C [Example 232, 4-(4-(bis(4-fluorophenyl)methyl)piperazin-1-yl)-1,6-dimethyl-3-(trifluoromethyl)-1,5-naphthyridin-2(1H)-one] | > 240 | 150 | 1.1 |  |  |
| Cn1c(=O)c(C#N)c(N2CCN(Cc3cc(F)cc(F)c3)CC2)c2nc(Cl)ccc21 [Example 291, 6-chloro-4-{4-[(3,5-difluorophenyl)methyl]piperazin-1-yl}-1-methyl-2-oxo-1,2-dihydro-1,5-naphthyridine-3-carbonitrile] | > 81 | 0.33 | 0.11 |  |  |
| COCCn1c(=O)c(C#N)c(N2CCN(C(c3ccc(F)cc3)c3ccccc3O)CC2)c2nc(Br)ccc21 (stereo not drawn) [Example 117, 6-bromo-4-(4-((4-fluorophenyl)(2-hydroxyphenyl)methyl)piperazin-1-yl)-1-(2-methoxyethyl)-2-oxo-1,2-dihydro-1,5-naphthyridine-3-carbonitrile] | 21 | 46 | 0.77 |  |  |
| COc1ccccc1CN1CCN(c2c(C#N)c(=O)n(C)c3ccc(Cl)nc23)CC1 [Example 331, 6-chloro-4-{4-[(2-methoxyphenyl)methyl]piperazin-1-yl}-1-methyl-2-oxo-1,2-dihydro-1,5-naphthyridine-3-carbonitrile] | > 240 | 0.49 | 0.52 |  |  |
| Cn1c(=O)c(C#N)c(N2CCN(Cc3ccccc3F)CC2)c2nc(Cl)ccc21 [Example 339, 6-chloro-4-{4-[(2-fluorophenyl)methyl]piperazin-1-yl}-1-methyl-2-oxo-1,2-dihydro-1,5-naphthyridine-3-carbonitrile] | > 240 | 0.57 | 0.65 |  |  |
| Cn1c(=O)c(C#N)c(N2CCN(Cc3ccc(F)c(O)c3)CC2)c2nc(Cl)ccc21 [Example 348, 6-chloro-4-{4-[(4-fluoro-3-hydroxyphenyl)methyl]piperazin-1-yl}-1-methyl-2-oxo-1,2-dihydro-1,5-naphthyridine-3-carbonitrile] | 140 | 0.22 | 1.3 |  |  |
| Cn1c(=O)c(C#N)c(N2CCN(Cc3cccc4c3NCC4)CC2)c2nc(Br)ccc21 [Example 299, 6-bromo-4-{4-[(2,3-dihydro-1H-indol-7-yl)methyl]piperazin-1-yl}-1-methyl-2-oxo-1,2-dihydro-1,5-naphthyridine-3-carbonitrile] | > 240 | 0.57 | 0.16 |  |  |
| C#CCn1c(=O)c(C#N)c(N2CCN(Cc3ccc(F)cc3OC)CC2)c2nc(Br)ccc21 [Example 68, 6-bromo-4-(4-(4-fluoro-2-methoxybenzyl)piperazin-1-yl)-2-oxo-1-(prop-2-yn-1-yl)-1,2-dihydro-1,5-naphthyridine-3-carbonitrile] | 23 | 4 | 0.052 |  |  |
| Cn1c(=O)c(Br)c(N2CCN(C(c3ccc(F)cc3)c3ccc(F)cc3)CC2)c2ncccc21 [Example 230, 4-(4-(bis(4-fluorophenyl)methyl)piperazin-1-yl)-3-bromo-1-methyl-1,5-naphthyridin-2(1H)-one] | > 240 | 8.8 | 3.6 |  |  |
| Cc1ccc2c(n1)c(N1CCN(Cc3ccccc3O)CC1)c(C#N)c(=O)n2C [Example 337, 4-{4-[(2-hydroxyphenyl)methyl]piperazin-1-yl}-1,6-dimethyl-2-oxo-1,2-dihydro-1,5-naphthyridine-3-carbonitrile] | > 81 | 0.065 | 0.55 |  |  |
| Cn1c(=O)c(C#N)c(N2CCN(Cc3cccc4cc[nH]c34)CC2)c2nc(Cl)ccc21 [Example 303, 6-chloro-4-{4-[_(1H-indol-7-yl)methyl]piperazin-1-yl}-1-methyl-2-oxo-1,2-dihydro-1,5-naphthyridine-3-carbonitrile] | > 240 | 0.9 | 0.18 |  |  |
| COCCn1c(=O)c([N+](=O)[O-])c(N2CCN(C(C)c3ccc(F)cc3)CC2)c2nc(C#N)ccc21 (single isomer, unassigned) [Example 149, 8-(4-(1-(4-fluorophenyl)ethyl)piperazin-1-yl)-5-(2-methoxyethyl)-7-nitro-6-oxo-5,6-dihydro-1,5-naphthyridine-2-carbonitrile] | 86 | 47 |  | 0.064 |  |
| Cn1c(=O)c([N+](=O)[O-])c(N2CCN(C(c3ccc(F)cc3)c3cccc(F)c3O)CC2)c2nc(Br)ccc21 (single isomer, unassigned) [Example 75, 6-bromo-4-(4-((3-fluoro-2-hydroxyphenyl)(4-fluorophenyl)methyl)piperazin-1-yl)-1-methyl-3-nitro-1,5-naphthyridin-2(1H)-one] |  | 2.6 |  | 0.14 | 130 |
| Cn1c(=O)c(C#N)c(N2CCN(Cc3ccc(Br)cc3O)CC2)c2nc(Cl)ccc21 [Example 276, 4-{4-[(4-bromo-2-hydroxyphenyl)methyl]piperazin-1-yl}-6-chloro-1-methyl-2-oxo-1,2-dihydro-1,5-naphthyridine-3-carbonitrile] | > 240 | 0.012 | 0.079 |  |  |
